Test results as given in ChEMBL document CHEMBL5532665 (J Med Chem, 2024).
Active and inactive are the calls of the source. No cut-off for these calls is given here.

Legend:
Mus musculus [1] = experiment: Antinociceptive activity in Kunming mouse model assessed as latency of tail withdrawal at 144.4 nmol/kg, sc measured for 120 mins by tail-flick test relative to control; assay type: functional; conditions: 2 h
Mus musculus [2] = experiment: Antinociceptive activity in Kunming mouse model assessed as latency of tail withdrawal at 144.4 nmol/kg, sc measured for 10 mins by tail-flick test relative to control; assay type: functional
Mus musculus [3] = experiment: Antinociceptive activity in Kunming mouse model assessed as latency of tail withdrawal at 144.4 nmol/kg, sc measured for 30 mins by tail-flick test relative to control; assay type: functional; conditions: 0.5 h
[4] = molecular target: Kappa-type opioid receptor (Homo sapiens, UniProt P41145); experiment: Agonist activity at human KOR expressed in CHO-K1 cells co-expressing G-alpha15 upto 100 uM by calcium mobilization assay; assay type: functional, cell-based
Mus musculus [5] = experiment: Antinociceptive activity in Kunming mouse model assessed as latency of tail withdrawal at 144.4 nmol/kg, sc measured for 60 mins by tail-flick test relative to control; assay type: functional; conditions: 1 h
Mus musculus [6] = experiment: Antinociceptive activity in Kunming mouse model assessed as latency of tail withdrawal at 132.2 nmol/kg, sc measured for 60 mins by tail-flick test relative to control; assay type: functional; conditions: 1 h
Mus musculus [7] = experiment: Antinociceptive activity in Kunming mouse model assessed as latency of tail withdrawal at 132.2 nmol/kg, sc measured for 120 mins by tail-flick test relative to control; assay type: functional; conditions: 2 h
Mus musculus [8] = experiment: Antinociceptive activity in Kunming mouse model assessed as latency of tail withdrawal at 132.2 nmol/kg, sc measured for 10 mins by tail-flick test relative to control; assay type: functional
Mus musculus [9] = experiment: Antinociceptive activity in Kunming mouse model assessed as latency of tail withdrawal at 132.2 nmol/kg, sc measured for 30 mins by tail-flick test relative to control; assay type: functional; conditions: 0.5 h
Mus musculus [10] = experiment: Antinociceptive activity in Kunming mouse model assessed as latency of tail withdrawal at 13881 nmol/kg, sc measured for 30 mins by tail-flick test relative to control; assay type: functional; conditions: 0.5 h
Mus musculus [11] = experiment: Antinociceptive activity in Kunming mouse model assessed as latency of tail withdrawal at 13881 nmol/kg, sc measured for 120 mins by tail-flick test relative to control; assay type: functional; conditions: 2 h
Mus musculus [12] = experiment: Antinociceptive activity in Kunming mouse model assessed as latency of tail withdrawal at 13881 nmol/kg, sc measured for 10 mins by tail-flick test relative to control; assay type: functional
Mus musculus [13] = experiment: Antinociceptive activity in Kunming mouse model assessed as latency of tail withdrawal at 13881 nmol/kg, sc measured for 60 mins by tail-flick test relative to control; assay type: functional; conditions: 1 h
Mus musculus [14] = experiment: Antinociceptive activity in Kunming mouse model assessed as latency of tail withdrawal at 164.1 nmol/kg, sc measured for 10 mins by tail-flick test relative to control; assay type: functional
Mus musculus [15] = experiment: Antinociceptive activity in Kunming mouse model assessed as latency of tail withdrawal at 164.1 nmol/kg, sc measured for 120 mins by tail-flick test relative to control; assay type: functional; conditions: 2 h
Mus musculus [16] = experiment: Antinociceptive activity in Kunming mouse model assessed as latency of tail withdrawal at 164.1 nmol/kg, sc measured for 30 mins by tail-flick test relative to control; assay type: functional; conditions: 0.5 h
Mus musculus [17] = experiment: Antinociceptive activity in Kunming mouse model assessed as latency of tail withdrawal at 164.1 nmol/kg, sc measured for 60 mins by tail-flick test relative to control; assay type: functional; conditions: 1 h
Mus musculus [18] = experiment: Antinociceptive activity in Kunming mouse model assessed as latency of tail withdrawal at 13882 nmol/kg, sc measured for 30 mins by tail-flick test relative to control; assay type: functional; conditions: 0.5 h
Mus musculus [19] = experiment: Antinociceptive activity in Kunming mouse model assessed as latency of tail withdrawal at 13882 nmol/kg, sc measured for 60 mins by tail-flick test relative to control; assay type: functional; conditions: 1 h
Mus musculus [20] = experiment: Antinociceptive activity in Kunming mouse model assessed as latency of tail withdrawal at 13882 nmol/kg, sc measured for 10 mins by tail-flick test relative to control; assay type: functional
Mus musculus [21] = experiment: Antinociceptive activity in Kunming mouse model assessed as latency of tail withdrawal at 13882 nmol/kg, sc measured for 120 mins by tail-flick test relative to control; assay type: functional; conditions: 2 h
Mus musculus [22] = experiment: Antinociceptive activity in Kunming mouse model assessed as latency of tail withdrawal at 1.4 nmol/kg, sc measured for 60 mins by tail-flick test relative to control; assay type: functional; conditions: 1 h
Mus musculus [23] = experiment: Antinociceptive activity in Kunming mouse model assessed as latency of tail withdrawal at 1.4 nmol/kg, sc measured for 10 mins by tail-flick test relative to control; assay type: functional
Mus musculus [24] = experiment: Antinociceptive activity in Kunming mouse model administered subcutaneously measured for 5 to 15 mins by acetic acid-induced writhing test; assay type: functional; conditions: route sc, time 5-15 min
Mus musculus [25] = experiment: Antinociceptive activity in Kunming mouse model assessed as latency of tail withdrawal at 1.4 nmol/kg, sc measured for 120 mins by tail-flick test relative to control; assay type: functional; conditions: 2 h
Mus musculus [26] = experiment: Antinociceptive activity in Kunming mouse model administered subcutaneously by tail-flick test; assay type: functional; conditions: route sc
Mus musculus [27] = experiment: Antinociceptive activity in Kunming mouse model administered orally by tail-flick test; assay type: functional; conditions: route po
Mus musculus [28] = experiment: Inhibition of gastrointestinal motility in fasted Kunming mouse model treated subcutaneously for 15 mins followed by charcoal-gum arabic treatment measured after 30 mins; assay type: functional; conditions: 0.75 h, route sc, time 45 min
Mus musculus [29] = experiment: Antinociceptive activity in Kunming mouse model assessed as latency of tail withdrawal at 1.4 nmol/kg, sc measured for 30 mins by tail-flick test relative to control; assay type: functional; conditions: 0.5 h

Kappa-type opioid receptor, sequence (P41145 whole entry): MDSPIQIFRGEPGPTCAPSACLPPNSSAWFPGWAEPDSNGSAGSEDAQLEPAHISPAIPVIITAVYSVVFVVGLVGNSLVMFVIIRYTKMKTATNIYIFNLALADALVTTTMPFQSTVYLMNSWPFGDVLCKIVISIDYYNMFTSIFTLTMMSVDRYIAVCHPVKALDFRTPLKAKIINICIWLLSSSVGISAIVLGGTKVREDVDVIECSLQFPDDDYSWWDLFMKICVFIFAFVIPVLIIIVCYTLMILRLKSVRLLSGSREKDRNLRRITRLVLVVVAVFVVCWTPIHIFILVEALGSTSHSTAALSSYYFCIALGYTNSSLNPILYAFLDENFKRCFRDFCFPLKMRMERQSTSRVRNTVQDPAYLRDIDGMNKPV

## NC(=O)[C@@H]1CCCN1C(=O)[C@H]1CC(=O)NCCCC[C@@H](NC(=O)[C@@H](N)Cc2ccc(O)cc2)C(=O)NCC(=O)N[C@@H](c2ccccc2)C(=O)N1
Mus musculus [1]
  MPE: 44.4%
Mus musculus [2]
  MPE: 44.4%
Mus musculus [3]
  MPE: 94.4%
[4]
  Activity: inactive
Mus musculus [5]
  MPE: 87.5%

## NC(=O)[C@H]1CCCN1C(=O)[C@@H]1CC(=O)NCCCC[C@@H](NC(=O)[C@@H](N)Cc2ccc(O)cc2)C(=O)NCC(=O)N[C@@H](Cc2ccc3ccccc3c2)C(=O)N1
Mus musculus [6]
  MPE: 76.9%
Mus musculus [7]
  MPE: 26.8%
Mus musculus [8]
  MPE: 78.1%
Mus musculus [9]
  MPE: 94.8%

## CN1CC(=O)N[C@@H](Cc2ccccc2)C(=O)N[C@H](C(=O)N2CCC[C@@H]2C(N)=O)CC(=O)NCCCC[C@@H](NC(=O)[C@@H](N)Cc2ccc(O)cc2)C1=O
Mus musculus [10]
  MPE: 92.7%
Mus musculus [11]
  MPE: 58.7%
Mus musculus [12]
  MPE: 53.2%
Mus musculus [13]
  MPE: 75.7%

## NC(=O)[C@@H]1CC(=O)NCCCC[C@@H](NC(=O)[C@@H](N)Cc2ccc(O)cc2)C(=O)NCC(=O)N[C@@H](Cc2ccccc2)C(=O)N1
Mus musculus [14]
  MPE: 70.7%
Mus musculus [15]
  MPE: 43.8%
Mus musculus [16]
  MPE: 95.4%
Mus musculus [17]
  MPE: 71.9%

## NC(=O)[C@H]1CCCN1C(=O)[C@@H]1CC(=O)NCCCC[C@@H](NC(=O)[C@@H](N)Cc2ccc(O)cc2)C(=O)NCC(=O)N[C@@H](CCc2ccccc2)C(=O)N1
Mus musculus [18]
  MPE: 96%
Mus musculus [19]
  MPE: 73.7%
Mus musculus [20]
  MPE: 55%
Mus musculus [21]
  MPE: 25.6%

## NC(=O)[C@H]1CCCN1C(=O)[C@@H]1CC(=O)NCCCC[C@@H](NC(=O)[C@@H](N)Cc2ccc(O)cc2)C(=O)NCC(=O)N[C@@H](Cc2ccc(F)cc2)C(=O)N1
Mus musculus [22]
  MPE: 84.1%
Mus musculus [23]
  MPE: 59.2%
Mus musculus [24]
  ED50: 0.0002 µmol/kg
Mus musculus [25]
  MPE: 34.3%
Mus musculus [26]
  ED50: 8e-05 µmol/kg
Mus musculus [27]
  ED50: 9e-05 µmol/kg
Mus musculus [28]
  ED50: 0.0044 µmol/kg
Mus musculus [29]
  MPE: 93.1%
